From paper PMC8110993, “Structure and antimicrobial activity of NCR169, a nodule-specific cysteine-rich peptide of Medicago truncatula” (Scientific Reports, 2021) come the findings set out here.

Where a SMILES comes first, the peptide text is derived from it. Bridges are numbered along the chain shown (N, C = ends).

Data set [1] is described as follows: Liposome sedimentation (binding) assay. The note with it: peptide 20 μM, 2 mM DMPC liposomes, 20 mM HEPES, 150 mM NaCl, pH 7.0, 30 min room temperature, 200,000×g, supernatant and pellet by Tricine-SDS-PAGE. As for the experimental part: (§1) Figure 3 NCR169 binds to the bacterial phospholipid. (A) Circular dichroism (CD) spectra of NCR169 peptides (NCR169-ox1 and -ox2). NCR169 peptides (20 μM) were dissolved in the following solvents: water (No additives), 2 mM DMPC liposomes, 2 mM DMPG liposomes or 30% 2,2,2-trifluoroethanol (TFE). (B) The results of liposome binding assays. The NCR169 peptide (20 μM) was incubated with buffer (No lipid), 2 mM DMPC liposomes, or 2 mM DMPG liposomes. After incubation at room temperature for 30 min, the mixture was ultra-centrifuged at 200,000×g. The supernatant and pellet fractions were analyzed by Tricine-SDS-PAGE. The no lipid sample before ultra-centrifugation was used as the input.
(§2) The phospholipids DMPC and DMPG were purchased from Avanti Polar Lipids (Alabaster, AL, USA). An appropriate amount of phospholipid was dissolved in chloroform and dried under vacuum for 1 h. The lipid film was suspended in water, vortexed, and sonicated for 30 min to form the liposomes.
The assay was carried out as described previously. Briefly, equal volumes of NCR169 peptide (20 μM) and liposomes (2 mM) were mixed in assay buffer (20 mM HEPES, 150 mM NaCl, pH 7.0) and incubated for 30 min at room temperature, followed by ultracentrifugation at 200,000×g for 15 min at 20 °C. […] The supernatant and pellet fractions were subjected to Tricine-SDS-PAGE, and peptides were detected by Coomassie Brilliant Blue staining.

The format of data set [2] is physicochemical. As for the experimental part: To confirm it, we examined the solubility of NCR169 in various solvents, HEPES (salt-free), HEPES with salt (50 to 200 mM NaCl or KCl), and PBS. […] In other words, the disulfide bonds of NCR169 contribute to its solubility.
Supplementary Figure S3. Solubility assessment of NCR169. The same amount of NCR169 was dissolved in various solvents. After incubation at room temperature for 1 h, the solution was centrifuged at 20,000 × g and the supernatant was analyzed by Tricine-SDS-PAGE. […]

Data set [3] is described as follows: Liposome sedimentation (binding) assay. The note with it: peptide 20 μM, 2 mM DMPG liposomes, 20 mM HEPES, 150 mM NaCl, pH 7.0, 30 min room temperature, 200,000×g, supernatant and pellet by Tricine-SDS-PAGE. On the procedure: as §1, §2
The assay was carried out as described previously. Briefly, equal volumes of NCR169 peptide (20 μM) and liposomes (2 mM) were mixed in assay buffer (20 mM HEPES, 150 mM NaCl, pH 7.0) and incubated for 30 min at room temperature, followed by ultracentrifugation at 200,000×g for 15 min at 20 °C. After centrifugation, the supernatant was collected, and the pellet was dissolved in the same volume of assay buffer containing 0.2% Triton X-100. The supernatant and pellet fractions were subjected to Tricine-SDS-PAGE, and peptides were detected by Coomassie Brilliant Blue staining.
Supplementary Figure S11. NCR 169 M binds to the bacterial phospholipid. (A) Circular dichroism (CD) spectra of NCR169M (20 μM) in water (No additive), 2 mM dimyristoylphosphatidylcholine (DMPC) liposomes, 2 mM dimyristoylphosphatidylglycerol (DMPG) liposomes or 30% 2,2,2-trifluoroethanol (TFE). (B) The result of liposome binding assay. NCR169M (20 μM) was incubated with buffer (No lipid),2 mM DMPC liposomes, or 2 mM DMPG liposomes . After incubation at room temperature for 30 min, the mixture was ultra-centrifuged at 200,000 × g. The supernatant and pellet fractions were analyzed by Tricine-SDS-PAGE. The no lipidsample before ultra-centrifugation was used as the input.
(also on this page, place not known: [θ] (103 deg cm2 dmol-1) markerkDa input No lipid sup ppt sup ppt sup ppt NCR169M lipid), DMPC 2 DMPG liposomes. lipid sample)
(1 picture or pasted object on this page, not shown here)
Supplementary Figure S12. The results of liposome binding assays. (A) NCR169-derived peptide (10 μM) was incubated with buffer (No lipid), 1 mM DMPC liposomes, 1 mM DMPG liposomes. After incubation at room temperature for 30 min, the mixture was ultra-centrifuged at 200,000 × g. The supernatant and pellet fractions were analyzed by Tricine-SDS-PAGE. The no lipid sample before ultra-centrifugation was used as the input. Arrows indicate weak bands. (B) […]

The next data set has as its system Escherichia coli K-12. Type of data set: cell-based. To be noted: for IC100: E. coli K-12, drop plate method, 2 h treatment at room temperature, 5 mM HEPES-KOH pH 7.0; for IC50: K-12, 2 h, pH 7. On the procedure: (§3) Antimicrobial tests were performed using the drop plate method[12],[47]. Bacterial strains in the logarithmic phase (OD600 = 0.5–0.8) were diluted with 5 mM HEPES–KOH (pH 7.0) to a bacterial culture value of 1 × 10^6 CFU/mL. At OD600 = 0.1, the concentrations of S. meliloti and E. coli K-12 cells were 6.4 × 10^6 CFU/mL and 5.2 × 10^7 CFU/mL, respectively. Equal volumes of bacteria (S. meliloti or E. coli K-12) and NCR169 peptide or PMB were mixed and incubated at room temperature for 2 h. For antimicrobial tests against S. meliloti, 10 μL of each serially diluted mixture was spotted on MHB plates with 2.5 mM MgCl2, and 2.5 mM CaCl2, followed by incubation at 30 °C for 40 h. For antimicrobial tests against E. coli K-12, 10 μL of each mixture was spotted on Mueller Hinton Broth (MHB; MilliporeSigma, Burlington, MA, USA) plates followed by incubation at 30 °C for 13 h.
(§4) To estimate survival rate, the peptide-treated bacterial mixtures were serially diluted with the buffer before spotting on the plate. Bacterial survival rates were calculated using the colony numbers of each bacterial strain with or without peptide treatment. All experiments were repeated at least four times.
(§5) Supplementary Table S2. Antimicrobial activities of NCR169 peptides against E. coliK-12 and S. meliloti.
(§6) Peptide IC50 (μM)* IC100 (μM)
(§7) E. coli K-12 S. meliloti E. coli K-12 S. meliloti
(§8) IC50: 50% inhibitory concentration (Calculated using “Dose-response curve” fitting)

Another data set has as its system Sinorhizobium meliloti. The data set is classed as cell-based. The note with it: for IC50: 2 h, pH 7; for IC100: S. meliloti, drop plate method, 2 h treatment at room temperature, 5 mM HEPES-KOH pH 7.0. As for the experimental part:
as §3, §4, §5, §6, §7, §8

The format of data set [4] is physicochemical. To be noted: pH 2.2. As for the experimental part:
We further measured the circular dichroism (CD) spectra of NCR169-ox1 and -ox2 under various pH conditions to confirm their structural stability against pH (Supplementary Fig. S4). […] Because acidic pH is preferable for amide proton detection in NMR experiments, we performed the following solution NMR study at lower pH.
CD spectra were recorded within a wavelength range of 270–195 nm using a JASCO J-820 spectropolarimeter (JASCO International Co., Ltd., Tokyo, Japan). A quartz cell with a light path length of 1 mm was used for the measurements. The sample temperature was maintained at 25 °C during the measurements.
Supplementary Figure S4. Circular dichroism (CD) spectra of NCR169-ox1 and -ox2 under
various pH conditions. The signal reflectingβ-sheet structure (218 nm) was hardly changed.

As to `CC[C@H](C)[C@@H]1NC(=O)CNC(=O)[C@@H](NC(=O)[C@H](Cc2ccc(O)cc2)NC(=O)[C@H](CCCCN)NC(=O)[C@@H](NC(=O)[C@H](Cc2c[nH]cn2)NC(=O)CNC(=O)[C@@H](NC(=O)[C@H](CC(=O)O)NC(=O)[C@H](CCC(=O)O)NC(=O)CN)[C@@H](C)CC)[C@@H](C)CC)CSSC[C@@H](C(=O)N[C@@H](Cc2ccc(O)cc2)C(=O)N[C@@H](CCCCN)C(=O)N[C@@H](CO)C(=O)N[C@@H](CCCCN)C(=O)N[C@@H](CCCCN)C(=O)N2CCC[C@H]2C(=O)N[C@@H](CC(C)C)C(=O)N[C@@H](Cc2ccccc2)C(=O)N[C@@H](CCCCN)C(=O)N[C@H](C(=O)N[C@@H](Cc2c[nH]c3ccccc23)C(=O)N[C@@H](CCCCN)C(=O)N[C@H]2CSSC[C@@H](C(=O)N[C@H](C(=O)N[C@@H](CC(C)C)C(=O)N[C@@H](Cc3c[nH]c4ccccc34)C(=O)N[C@@H](Cc3ccc(O)cc3)C(=O)N[C@@H](CCCCN)C(=O)O)C(C)C)NC(=O)[C@H](C(C)C)NC(=O)[C@H](CC(N)=O)NC(=O)[C@H](CCC(=O)O)NC(=O)[C@H](C(C)C)NC2=O)[C@@H](C)CC)NC(=O)[C@H](CC(=O)O)NC(=O)[C@H](CC(=O)O)NC(=O)[C@H](C(C)C)NC1=O` [NCR169-ox1] (H-GEDIGHIKYCGIVDDCYKSKKPLFKIWKCVENVCVLWYK-OH; disulfide 10-16, 29-34), the “Binding to DMPC liposomes” value in data set [1] was “Neither NCR169-ox1 nor -ox2 bound”. Further, in data set [2], the “Solubility in various solvents” value is reported as “soluble in all conditions”. In data set [3], the “Binding to DMPG liposomes” value was “bound to the DMPG liposomes”. In the data set on Escherichia coli K-12, this compound had an IC100 of 16 µM and an IC50 of 0.41 µM. In the data set on Sinorhizobium meliloti, this compound yielded an IC50 of 6.4 µM and an IC100 of 128 µM. The “Structural stability against pH (CD spectra)” value in data set [4] is “retained their conformations under acidic and neutral conditions”.
For `CC[C@H](C)[C@@H]1NC(=O)CNC(=O)[C@@H](NC(=O)[C@H](Cc2ccc(O)cc2)NC(=O)[C@H](CCCCN)NC(=O)[C@@H](NC(=O)[C@H](Cc2c[nH]cn2)NC(=O)CNC(=O)[C@@H](NC(=O)[C@H](CC(=O)O)NC(=O)[C@H](CCC(=O)O)NC(=O)CN)[C@@H](C)CC)[C@@H](C)CC)CSSC[C@@H]2NC(=O)[C@H](CCCCN)NC(=O)[C@H](Cc3c[nH]c4ccccc34)NC(=O)[C@H]([C@@H](C)CC)NC(=O)[C@H](CCCCN)NC(=O)[C@H](Cc3ccccc3)NC(=O)[C@H](CC(C)C)NC(=O)[C@@H]3CCCN3C(=O)[C@H](CCCCN)NC(=O)[C@H](CCCCN)NC(=O)[C@H](CO)NC(=O)[C@H](CCCCN)NC(=O)[C@H](Cc3ccc(O)cc3)NC(=O)[C@H](CSSC[C@@H](C(=O)N[C@H](C(=O)N[C@@H](CC(C)C)C(=O)N[C@@H](Cc3c[nH]c4ccccc34)C(=O)N[C@@H](Cc3ccc(O)cc3)C(=O)N[C@@H](CCCCN)C(=O)O)C(C)C)NC(=O)[C@H](C(C)C)NC(=O)[C@H](CC(N)=O)NC(=O)[C@H](CCC(=O)O)NC(=O)[C@H](C(C)C)NC2=O)NC(=O)[C@H](CC(=O)O)NC(=O)[C@H](CC(=O)O)NC(=O)[C@H](C(C)C)NC1=O` [NCR169-ox2] (H-GEDIGHIKYCGIVDDCYKSKKPLFKIWKCVENVCVLWYK-OH; disulfide 10-29, 16-34), the “Binding to DMPC liposomes” value in data set [1] is recorded as “Neither NCR169-ox1 nor -ox2 bound”. Further, the “Solubility in various solvents” value in data set [2] was “soluble in all conditions”. The “Binding to DMPG liposomes” value in data set [3] is on record as “hardly binds”. The IC100 with Escherichia coli K-12 is 16 µM; with Sinorhizobium meliloti, 128 µM. Besides, the IC50 came to 3.4 µM in the data set with Escherichia coli K-12 and 9.8 µM in the data set on Sinorhizobium meliloti. In data set [4], the “Structural stability against pH (CD spectra)” value is “retained their conformations under acidic and neutral conditions”.

The IC50 is the concentration that inhibits the measured activity by half. The low end stands for greater potency, the high end for weaker potency.
